Reference: patent US20250313556A1, “CERTAIN CHEMICAL ENTITIES, COMPOSITIONS, AND METHODS” (MRJA THERAPEUTICS, INC., priority 2022, published 2025)

Target: c-KIT (Homo sapiens, UniProt P10721)
Test: c-KIT ADP-Glo biochemical assay
Description: The inhibitory activity against c-KIT was measured using ADP-Glo assay. The percent (%) inhibition at each concentration of compound is calculated based on and relative to the luminescence signal in the Max and Min control wells contained within each assay plate. The Max control wells contain enzyme and substrate as 0% inhibition, and the Min control wells only contain substrate without enzyme as 100% inhibition. The concentrations and % inhibition values for tested compounds are plotted and the concentration of compound required for 50% inhibition (IC50) is determined with a four-parameter logistic dose response equation. The ability of the compounds in Table 1 to inhibit c-KIT was determined.

c-KIT, sequence (P10721 26-976): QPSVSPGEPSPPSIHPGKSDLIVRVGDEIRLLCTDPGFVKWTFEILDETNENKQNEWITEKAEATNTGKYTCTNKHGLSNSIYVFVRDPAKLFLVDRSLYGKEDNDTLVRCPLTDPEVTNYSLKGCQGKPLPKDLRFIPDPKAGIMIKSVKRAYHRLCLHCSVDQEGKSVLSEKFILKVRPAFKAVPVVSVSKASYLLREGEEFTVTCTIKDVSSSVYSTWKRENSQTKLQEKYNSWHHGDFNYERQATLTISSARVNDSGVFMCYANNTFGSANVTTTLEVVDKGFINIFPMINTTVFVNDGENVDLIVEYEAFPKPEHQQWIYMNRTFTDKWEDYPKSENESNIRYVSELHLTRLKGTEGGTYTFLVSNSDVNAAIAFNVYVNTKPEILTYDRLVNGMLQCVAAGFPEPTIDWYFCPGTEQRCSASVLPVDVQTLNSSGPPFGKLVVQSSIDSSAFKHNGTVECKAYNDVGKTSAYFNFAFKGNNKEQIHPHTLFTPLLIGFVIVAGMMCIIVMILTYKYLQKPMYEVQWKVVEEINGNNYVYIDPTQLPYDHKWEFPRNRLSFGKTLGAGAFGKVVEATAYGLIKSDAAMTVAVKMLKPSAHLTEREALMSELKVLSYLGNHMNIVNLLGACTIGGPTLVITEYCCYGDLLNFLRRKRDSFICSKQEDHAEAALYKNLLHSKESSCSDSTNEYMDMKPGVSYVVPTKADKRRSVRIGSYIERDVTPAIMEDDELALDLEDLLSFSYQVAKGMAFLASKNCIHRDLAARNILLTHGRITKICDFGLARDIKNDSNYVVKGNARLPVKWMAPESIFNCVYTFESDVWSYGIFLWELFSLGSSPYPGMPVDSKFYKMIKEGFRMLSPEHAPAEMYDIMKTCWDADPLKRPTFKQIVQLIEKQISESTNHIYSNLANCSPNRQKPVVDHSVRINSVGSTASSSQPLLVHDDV

Row | Structure (SMILES) | IC50 (class ranges) [µM] | IC50 (comparison of prior art compounds (WO 2013/033167) with example 3 (C003)) [µM]
1 | Cc1c(F)cc(-c2noc(C3CC(F)(F)C3)n2)cc1NC(=O)c1cnc2cc(N3CCNCC3)ccn12 [Compound C010, N-(5-(5-(3,3-difluorocyclobutyl)-1,2,4-oxadiazol-3-yl)-3-fluoro-2-methylphenyl)-7-(piperazin-1-yl)imidazo[1,2-a]pyridine-3-carboxamide] | 0.1 to 1 | –
2 | COC(=O)N1CC(c2nc(-c3cc(F)c(C)c(NC(=O)c4cnc5ccc(Cl)cn45)c3)no2)C1 [Compound C012, methyl 3-(3-(3-(6-chloroimidazo[1,2-a]pyridine-3-carboxamido)-5-fluoro-4-methylphenyl)-1,2,4-oxadiazol-5-yl)azetidine-1-carboxylate] | 0.1 to 1 | –
3 | CC(=O)N1CCN(c2ccn3c(C(=O)Nc4cc(-c5noc(C6CC(F)(F)C6)n5)cc(F)c4C)cnc3c2)CC1 [Compound C018, 7-(4-acetylpiperazin-1-yl)-N-(5-(5-(3,3-difluorocyclobutyl)-1,2,4-oxadiazol-3-yl)-3-fluoro-2-methylphenyl)imidazo[1,2-a]pyridine-3-carboxamide] | 0.1 to 1 | –
4 | COC(=O)N1CC(c2nc(-c3cc(F)c(C)c(NC(=O)c4cnc5ccc(F)cn45)c3)no2)C1 [Compound C019, methyl 3-(3-(3-fluoro-5-(6-fluoroimidazo[1,2-a]pyridine-3-carboxamido)-4-methylphenyl)-1,2,4-oxadiazol-5-yl)azetidine-1-carboxylate] | 0.1 to 1 | –
5 | COC(=O)N1CC(c2nnc(-c3cc(F)c(C)c(NC(=O)c4cnc5ccccn45)c3)[nH]2)C1 [Compound C048, methyl 3-(5-(3-fluoro-5-(imidazo[1,2-a]pyridine-3-carboxamido)-4-methylphenyl)-4H-1,2,4-triazol-3-yl)azetidine-1-carboxylate] | 0.1 to 1 | –
6 | Cc1c(F)cc(-c2noc([C@H]3C[C@@H]3F)n2)cc1NC(=O)c1cnc2cc(N3CCNCC3)ccn12 (racemic) [Compound C022, N-(3-fluoro-5-(5-((1R,2S)-2-fluorocyclopropyl)-1,2,4-oxadiazol-3-yl)-2-methylphenyl)-7-(piperazin-1-yl)imidazo[1,2-a]pyridine-3-carboxamide] | 1 to 20 | –
7 | COC(=O)N1CC(c2nc(-c3cc(F)c(C)c(NC(=O)c4cnc5ccccn45)c3F)no2)C1 [Compound C052, methyl 3-(3-(2,5-difluoro-3-(imidazo[1,2-a]pyridine-3-carboxamido)-4-methylphenyl)-1,2,4-oxadiazol-5-yl)azetidine-1-carboxylate] | ≤ 0.1 | –
8 | Cc1c(F)cc(-c2noc(C3CC(F)(F)C3)n2)cc1NC(=O)c1cnn2ccccc12 [Compound C004, N-(5-(5-(3,3-difluorocyclobutyl)-1,2,4-oxadiazol-3-yl)-3-fluoro-2-methylphenyl)pyrazolo[1,5-a]pyridine-3-carboxamide] | 1 to 20 | –
9 | Cc1c(F)cc(-c2noc(C3CC(F)(F)C3)n2)cc1NC(=O)c1cnc2ccc(N3CCOCC3)cn12 [Compound C007, N-(5-(5-(3,3-difluorocyclobutyl)-1,2,4-oxadiazol-3-yl)-3-fluoro-2-methylphenyl)-6-morpholinoimidazo[1,2-a]pyridine-3-carboxamide] | 0.1 to 1 | –
10 | COC(=O)N1CC(c2nc(-c3cc(F)c(C)c(NC(=O)c4cnc5ccc(OC)cn45)c3)no2)C1 [Compound C027, methyl 3-(3-(3-fluoro-5-(6-methoxyimidazo[1,2-a]pyridine-3-carboxamido)-4-methylphenyl)-1,2,4-oxadiazol-5-yl)azetidine-1-carboxylate] | 0.1 to 1 | –
11 | COC(=O)N1CC(c2nc(-c3cc(F)c(C)c(NC(=O)c4cnc5ccc(N6CCN(C)CC6)cn45)c3)no2)C1 [Compound C028, methyl 3-(3-(3-fluoro-4-methyl-5-(6-(4-methylpiperazin-1-yl)imidazo[1,2-a]pyridine-3-carboxamido)phenyl)-1,2,4-oxadiazol-5-yl)azetidine-1-carboxylate] | 0.1 to 1 | –
12 | COC(=O)N1CC(c2nc(-c3cc(NC(=O)c4cnc5ccccn45)c(C)cc3F)no2)C1 [methyl 3-(3-(2-fluoro-5-(imidazo[1,2-a]pyridine-3-carboxamido)-4-methylphenyl)-1,2,4-oxadiazol-5-yl)azetidine-1-carboxylate, reference compound] | – | 4.95
13 | COC(=O)N1CC[C@H](c2nc(-c3cc(F)c(C)c(NC(=O)c4cnc5ccccn45)c3F)no2)C1 [Compound C055, methyl (S)-3-(3-(2,5-difluoro-3-(imidazo[1,2-a]pyridine-3-carboxamido)-4-methylphenyl)-1,2,4-oxadiazol-5-yl)pyrrolidine-1-carboxylate] | 0.1 to 1 | –
14 | COC(=O)N1CC(c2nnc(-c3cc(F)c(C)c(NC(=O)c4cnc5ccccn45)c3)o2)C1 [Compound C044, methyl 3-(5-(3-fluoro-5-(imidazo[1,2-a]pyridine-3-carboxamido)-4-methylphenyl)-1,3,4-oxadiazol-2-yl)azetidine-1-carboxylate] | 1 to 20 | –
15 | COC(=O)N1CC(c2nc(-c3cc(F)c(C)c(NC(=O)c4cnc5cc(N6CCNCC6)ccn45)c3)no2)C1 [Compound C030, methyl 3-(3-(3-fluoro-4-methyl-5-(7-(piperazin-1-yl)imidazo[1,2-a]pyridine-3-carboxamido)phenyl)-1,2,4-oxadiazol-5-yl)azetidine-1-carboxylate] | 0.1 to 1 | –
16 | COCCOC(=O)N1CC(c2nc(-c3cc(F)c(C)c(NC(=O)c4cnc5ccccn45)c3)no2)C1 [Compound C042, 2-methoxyethyl 3-(3-(3-fluoro-5-(imidazo[1,2-a]pyridine-3-carboxamido)-4-methylphenyl)-1,2,4-oxadiazol-5-yl)azetidine-1-carboxylate] | 0.1 to 1 | –
17 | COC(=O)N1CC(c2nc(-c3cc(F)c(C)c(NC(=O)c4cnc5cc(C#N)ccn45)c3)no2)C1 [Compound C035, methyl 3-(3-(3-(7-cyanoimidazo[1,2-a]pyridine-3-carboxamido)-5-fluoro-4-methylphenyl)-1,2,4-oxadiazol-5-yl)azetidine-1-carboxylate] | 1 to 20 | –
18 | Cc1c(F)cc(-c2noc(C3CC(F)(F)C3)n2)cc1NC(=O)c1cnc2cc(N3CCOCC3)ccn12 [Compound C013, N-(5-(5-(3,3-difluorocyclobutyl)-1,2,4-oxadiazol-3-yl)-3-fluoro-2-methylphenyl)-7-morpholinoimidazo[1,2-a]pyridine-3-carboxamide] | 0.1 to 1 | –
19 | Cc1c(F)cc(-c2noc([C@H]3C[C@@H]3F)n2)cc1NC(=O)c1cnc2ccc(N3CCNCC3)cn12 (racemic) [Compound C026, N-(3-fluoro-5-(5-((1R,2S)-2-fluorocyclopropyl)-1,2,4-oxadiazol-3-yl)-2-methylphenyl)-6-(piperazin-1-yl)imidazo[1,2-a]pyridine-3-carboxamide] | 0.1 to 1 | –
20 | Cc1c(F)cc(-c2noc(C3CN(C(=O)OCCN)C3)n2)cc1NC(=O)c1cnc2ccccn12 [Compound C041, 2-aminoethyl 3-(3-(3-fluoro-5-(imidazo[1,2-a]pyridine-3-carboxamido)-4-methylphenyl)-1,2,4-oxadiazol-5-yl)azetidine-1-carboxylate] | ≤ 0.1 | –
21 | Cc1c(F)cc(-c2noc([C@H]3C[C@H]3F)n2)cc1NC(=O)c1cnn2ccccc12 (racemic) [Compound C005] | 0.1 to 1 | –
22 | COC(=O)N1CC(c2nc(-c3cc(F)c(C)c(NC(=O)c4cnc5cc(OC)ccn45)c3)no2)C1 [Compound C029, methyl 3-(3-(3-fluoro-5-(7-methoxyimidazo[1,2-a]pyridine-3-carboxamido)-4-methylphenyl)-1,2,4-oxadiazol-5-yl)azetidine-1-carboxylate] | ≤ 0.1 | –
23 | COC(=O)N1CC(c2cnc(-c3cc(F)c(C)c(NC(=O)c4cnc5ccccn45)c3)o2)C1 [Compound C051, methyl 3-(2-(3-fluoro-5-(imidazo[1,2-a]pyridine-3-carboxamido)-4-methylphenyl)oxazol-5-yl)azetidine-1-carboxylate] | 1 to 20 | –
24 | COC(=O)N1CCC[C@@H](c2nc(-c3cc(F)c(C)c(NC(=O)c4cnc5ccccn45)c3)no2)C1 [Compound C049, methyl (R)-3-(3-(3-fluoro-5-(imidazo[1,2-a]pyridine-3-carboxamido)-4-methylphenyl)-1,2,4-oxadiazol-5-yl)piperidine-1-carboxylate] | 0.1 to 1 | –
25 | CC(=O)N1CCN(c2ccc3ncc(C(=O)Nc4cc(-c5noc([C@H]6C[C@@H]6F)n5)cc(F)c4C)n3c2)CC1 (racemic) [Compound C039, 6-(4-acetylpiperazin-1-yl)-N-(3-fluoro-5-(5-((1R,2S)-2-fluorocyclopropyl)-1,2,4-oxadiazol-3-yl)-2-methylphenyl)imidazo[1,2-a]pyridine-3-carboxamide] | ≤ 0.1 | –
26 | COC(=O)N1CC(c2nc(-c3cc(F)c(C)c(NC(=O)c4cnc5ccc(N6CCOCC6)cn45)c3)no2)C1 [Compound C009, methyl 3-(3-(3-fluoro-4-methyl-5-(6-morpholinoimidazo[1,2-a]pyridine-3-carboxamido)phenyl)-1,2,4-oxadiazol-5-yl)azetidine-1-carboxylate] | 0.1 to 1 | –
27 | COC(=O)N1CC(c2nc(-c3cc(F)c(C)c(NC(=O)c4cnc5ccc(C(N)=O)cn45)c3)no2)C1 [Compound C040, methyl 3-(3-(3-(6-carbamoylimidazo[1,2-a]pyridine-3-carboxamido)-5-fluoro-4-methylphenyl)-1,2,4-oxadiazol-5-yl)azetidine-1-carboxylate] | ≤ 0.1 | –
28 | Cc1c(F)cc(-c2noc(C3CC(F)(F)C3)n2)cc1NC(=O)c1cnc2ccccn12 [Compound C001, N-(5-(5-(3,3-difluorocyclobutyl)-1,2,4-oxadiazol-3-yl)-3-fluoro-2-methylphenyl)imidazo[1,2-a]pyridine-3-carboxamide] | 1 to 20 | –
